In patent US12697359B2, “Composition for preventing hair loss and promoting hair growth comprising postbiotic components from heat-treat Limosilactobacillus fermentum LM1020” (priority 2023, dated 2026):

Tested on: dermal papilla cells
Assay: Dermal papilla cell growth promotion effect of functional raw materials and heat-treated LM1020, alone or combined (Colby prediction)
Format: cell-based, human
Conditions: for effect on growth of dermal papilla cells / Effect of promoting growth of dermal papilla cell (%) Measured value: medium lacking growth factor; for Effect of promoting growth of dermal papilla cell (%) Measured value: raw material alone or LSD mixture, without LM1020
Description: The effect on the growth of dermal papilla cells was confirmed when the heat-treated Limosilactobacillus fermentum LM1020 was used together with L-menthol, salicylic acid, and dexpanthenol, which are active ingredients frequently used for functional cosmetics that help relieve hair loss symptoms. After the dermal papilla cells were seeded in a 96-well plate and cultured for 24 hours, the medium in the well was replaced with a medium lacking growth factor and further cultured for 24 hours. Then, the heat-treated Limosilactobacillus fermentum LM1020, L-menthol, salicylic acid, and dexpanthenol were used alone or mixed in a ratio of […] and used for treatment of dermal papilla cells prepared by the above-described method to determine the effect on the growth of the dermal papilla cells.
A growth rate of dermal papilla cells when cultured alone and growth rates of dermal papilla cells when treated alone or in a combination of L-menthol, salicylic acid, dexpanthenol, and the heat-treated Limosilactobacillus fermentum LM1020 were calculated. Then, the effects of the respective treatment materials on the promotion of growth of dermal papilla cells were calculated using the formula below and compared with each other. All the tests were repeated three times, and the average of each result was calculated and compared. • Dermal papilla cell growth promotion effect (%)=(B−A)÷A×100 • A=Growth rate of dermal papilla cells in non-treatment group • B=Growth rate of dermal papilla cells when treated with L-menthol, salicylic acid, dexpanthenol, and heat-treated Limosilactobacillus fermentum LM1020
Meanwhile, it was confirmed that when the heat-treated Limosilactobacillus fermentum LM1020 is used for treatment together with compounds of L-menthol, salicylic acid, and dexpanthenol, it is possible to overcome the effect of the compounds on the inhibition of growth of dermal papilla cells and promote the growth of dermal papilla cells. In order to thoroughly understand their synergistic effect, the effect to be predicted was calculated using the Colby formula, and a prediction value was compared with an experimental value (measurement value) to verify whether a synergistic effect exceeding the prediction value can be achieved.

Row | SMILES | effect on growth of dermal papilla cells | Effect of promoting growth of dermal papilla cell (%) Measured value [%] | effect on promotion of growth of dermal papilla cells compared with heat-treated LM1020 (dexpanthenol alone vs LM1020 alone)
1 | CC(C)[C@@H]1CC[C@@H](C)C[C@H]1O [L-menthol] | inhibit the growth of dermal papilla cells | −12.05 ± 3.31 | 
2 | CC(C)(CO)[C@@H](O)C(=O)NCCCO [dexpanthenol] | able to promote the growth of dermal papilla cells | 2.35 ± 1.61 | lower than that of the heat-treated Limosilactobacillus fermentum LM1020 at all concentrations
3 | O=C(O)c1ccccc1O [salicylic acid] | inhibit the growth of dermal papilla cells | −0.39 ± 0.80 | 
